Results from patent US8518976B2, “Heteroaryl-substituted amides comprising a saturated linker group, and their use as pharmaceuticals” (Sanofi, priority 2005, dated 2013).
pEC50: −log10 of the molar value.

Each compound was assayed on eNOS promoter (assay: Activation of eNOS transcription (eNOS promoter-luciferase reporter gene assay)). Details: human endothelial cell line stably transfected with eNOS promoter-luciferase construct, 18 h incubation, determined graphically; read-out: EC50 values of transcription induction ratios (TIR).
Type: cell-based
Method: Activation of eNOS transcription was measured as described in detail by L^1 et al., “Activation of protein kinase C alpha and/or epsilon enhances transcription of the human endothelial nitric oxide synthase gene”, Mol. Pharmacol. 53 (1998) 630. Briefly, a 3.5 kB long fragment 5′ of the starting codon of the eNOS gene was cloned, sequenced and cloned in firefly luciferase expression plasmids to monitor activation of the eNOS promoter by reporter gene activity. A human endothelial cell line stable transfected and expressing this promoter-reporter construct was used for compound testing. Cells were incubated for 18 h with the compounds.
All compounds were dissolved in sterile dimethyl sulfoxide (DMSO). A final concentration of 0.5% DMSO in complete medium was allowed. Induction of reporter gene expression in these cells was measured using a standard luciferase assay system (Promega, Cat. No. E150) according to the manufacturer's instructions. Luciferase induction in cells incubated with compounds were compared to those incubated with solvent alone. The ratio of both activities (transcription induction ratio, TIR) was plotted as a function of compound concentration. Typically, TIR values started at low concentrations at a ratio of 1, indicating no compound effect, and extended up to a maximum TIR value TIR(max) which indicates the increase of the eNOS transcription. EC50 values of transcription induction ratios as a function of compound concentration were determined graphically.
In the case of `O=C1CSCCN1CCCc1ccc(-c2ccccc2Cl)nc1` [Example 7, 4-(3-(6-(2-Chlorophenyl)pyridin-3-yl)propyl)thiomorpholin-3-one], the pEC50 was 5.30 to 6.30. With `O=C(O)CCCC(=O)NCCCc1ccc(-c2ccc(F)cc2)nc1` [Example 17, 4-(3-(6-(4-Fluorophenyl)pyridin-3-yl)propylcarbamoyl)butyric acid] the pEC50 was 5.30 to 6.30. In the case of `O=C1CCCCCN1CCCc1ccc(-c2ccc(F)cc2)nc1` [Example 18, 1-(3-(6-(4-Fluorophenyl)pyridin-3-yl)propyl)azepan-2-one], the pEC50 was > 6.30. `O=C1CSC=CN1CCCc1ccc(-c2ccc(F)cc2)nc1` [Example 25, 4-(3-(6-(4-Fluorophenyl)pyridin-3-yl)propyl)-4H-[1,4]thiazin-3-one] was tested, and the pEC50 was > 6.30. `O=C1CCC(=O)N1CCNc1nc(-c2ccc(F)cc2)cs1` [Example 34, 1-(2-(4-(4-Fluorophenyl)thiazol-2-ylamino)ethyl)pyrrolidine-2,5-dione] showed a pEC50 of 5.30 to 6.30. For `O=C1CCC(=O)N1CCOc1ccc(-c2ccc(F)c(Cl)c2)nc1` [Example 50, 1-(2-(6-(3-Chloro-4-fluorophenyl)pyridin-3-yloxy)ethyl)pyrrolidine-2,5-dione], the pEC50 was > 6.30. With `Cc1csc(-c2ccc(OCCN3C(=O)CCC3=O)cn2)c1` [Example 52, 1-(2-(6-(4-methylthiophen-2-yl)pyridin-3-yloxy)ethyl)pyrrolidine-2,5-dione] the pEC50 was > 6.30. Work on `N#Cc1cccc(-c2ccc(OCCN3C(=O)CCC3=O)cn2)c1` [Example 64, 1-(2-(6-(3-cyanophenyl)pyridin-3-yloxy)ethyl)pyrrolidine-2,5-dione] yielded a pEC50 of 5.30 to 6.30. Work on `O=C1CCC(=O)N1CCOc1ccc(-c2cccc3ccccc23)nc1` [Example 66, 1-(2-(6-(naphthalen-1-yl)pyridin-3-yloxy)ethyl)pyrrolidine-2,5-dione] yielded a pEC50 of 5.30 to 6.30. `Cc1cc(-c2ccc(OCCN3C(=O)CCC3=O)cn2)ccc1F` [Example 86, 1-(2-(6-(4-fluoro-3-methylphenyl)pyridin-3-yloxy)ethyl)pyrrolidine-2,5-dione] was tested, and the pEC50 was > 6.30.
